Reference: PMC11940238, “Ru(II) Complexes with 3,4-Dimethylphenylhydrazine: Exploring In Vitro Anticancer Activity and Protein Affinities” (Biomolecules, 2025)

Key:
[1] = tested on: Bovine Serum Albumin (BSA); settings: cited from earlier work
[2] = target: T1, HSA (Homo sapiens, UniProt P02768); test: Spectrofluorimetric titration (fluorescence quenching) of HSA with the complexes; assay type: binding; settings: for ΔHb / ΔSb: van't Hoff plot, 300-310 K
Procedure: The excitation wavelength was set to 285 nm, while the emission spectrum was recorded in the interval from 315 nm to 600 nm. […] solution (phosphate buffer pH = 7.6) with a concentration of 5 × 10^−6 M was titrated (5–10 times) with a complex solutions (5 × 10^−4 M). Before each addition of complexes 1 and 2 to the HSA solutions, the cuvette was thermostated for 2 min for each tested temperature, and then the fluorescence quenching spectra of proteins were recorded. Recordings started 2 min after adding complex 1/complex 2 solutions to reach the desired temperature. The data were analyzed according to the double-log Stern-Volmer (SV) equation: (1) log(I0−IQ/IQ)=logKb+nlog[Q] where Kb and n are the binding constants and the number of binding sites per HSA molecule. The binding constants were determined from the intercept values on the SV diagrams and the double log SV equation (Table 1). These values are further used for van’t Hoff plots, lnKb = f(T^−1), from which the Gibbs free energy, enthalpy, and entropy changes were determined.

[3] = tested on: MIA PaCa-2 cells; test: Malondialdehyde and protein carbonyl concentrations in the medium; assay type: cell-based, human; settings: MIA PaCa-2, 24 h, 100 µM complex 1 or 50 µM complex 2, vs control
Procedure: (§1) MDA-MB-231 and MIA PaCa-2 cells were treated with 50 µM of complex 2 or 75 µM and 100 µM of complex 1, respectively, for 24 h. Untreated cells were used as control. The supernatants were collected and used for further analyses. Lipid peroxidation was estimated by a spectrophotometric assay based on the absorption maximum of the malondialdehyde (MDA) complex with thiobarbituric acid in an acidic environment and high temperature. 1,1,3,3-Tetramethoxypropane was used as standard. Absorbance was read on the ELISA reader using a 540 nm filter. The concentration was determined using a standard curve. The determination of protein carbonyl (PC) concentration was based on the method of Levin and associates. Absorbance was read on the ELISA reader using a 375 nm filter.

[4] = tested on: MDA-MB-231 cells; test: as above; assay type: cell-based, human; settings: MDA-MB-231, 24 h, 75 µM complex 1 or 50 µM complex 2, vs untreated cells
Procedure: as §1

[5] = tested on: HS-5 cells; test: MTT test on healthy cells; assay type: cell-based; settings: same concentrations as for cancer cells, 24 h
Procedure: (§2) Cells were harvested when they reached 85–90% confluent. 100 µL of cell suspension (15.000 cells per well) was poured into the wells of the 96-well plate and incubated overnight to allow the cells to attach to the well. The cells were treated with 1 or 2 in concentrations ranging from 0.19 to 200 µM. Untreated cells were used as control. After 24 h, 10 µL MTT (5 mg/mL) was added to each well. Cultures were incubated for […] at 37 °C. The reduction process was stopped by adding 100 µL/well of 10% SDS acidified with 1N HCl. Dissolution of the resulting blue color was continued overnight in the incubator at 37 °C. All treatments were done in replicates of three. The absorbance was read at 540 nm on an ELISA reader (RT-6100, Rayto, Shenzhen, China). The ratio of absorbances of treated to untreated living cells was used to measure viability. Cytotoxic activity was recorded as IC50, which is the concentration necessary to reduce the absorbance of treated cells by 50% compared to the control.

[6] = tested on: MDA-MB-231 cells; test: Examination of the cell cycle; assay type: cell-based, human; settings: MDA-MB-231, 24 h, p < 0.01
[7] = tested on: MIA PaCa-2 cells; test: Examination of the cell cycle; assay type: cell-based, human; settings: MIA PaCa-2, 24 h
[8] = target: T1, HSA; test: Spin-probing EPR: displacement of 16-DS from preformed HSA/16-DS; assay type: binding; settings: for Unbound Component Contribution (XUB, %): 50 µM HSA, 250 µM 16-DS, 200 µM complex ([HSA]:[Ru-complex] 1:4), 1.2% v/v DMSO, phosphate buffer pH 7.4, EPR spectral simulation
Procedure: In order to investigate the nature of the interaction between the two Ru-complexes and human serum albumin (HSA), spin-probing/electron paramagnetic resonance methodology was used additionally. Namely, as HSA can bind up to seven molecules of long-chain fatty acids, and their doxyl derivatives, which are EPR-active compounds, HSA was first incubated with the fivefold concentration of 16-doxyl-stearic acid (16-DS, Sigma-Aldrich), and subsequently the aliquots of the Ru-complexes solutions were added to the HSA/16-DS mixture. For this experiment, HSA was dissolved in the 100 mM phosphate buffer, pH 7.4, and its concentration was 0.2 mM. The ethanol solution of 16-DS was transferred to the bottom of the test tube, and ethanol was dried in the Eppendorf Concentrator plus vacuum centrifuge. After the ethanol completely evaporated, an appropriate amount of HSA solution was added to the tube containing 16-DS. The concentration of the 16-DS in HSA/16-DS solution was 1 mM, i.e., [HSA]:[16-DS] molar ratio was 1:5. This stock solution was incubated until the full binding of 16-DS to HSA was achieved. The incubation involved occasional gentle vortexing and thermostating at 37 °C in a water bath.
In the next step, Ru(II) complexes were dissolved in DMSO and diluted using 100 mM phosphate buffer, pH 7.4. The concentrations of both Ru(II) complexes stock solutions were 266.67 µM. Small volumes of these solutions were added to HSA/16-DS preparation and diluted with the phosphate buffer. Afterward, the samples were incubated for 30 min before the EPR measurement. […]
The samples prepared as previously described were aspirated into the capillary gas-permeable Teflon tubes (Zeus Industries, Inc., Orangeburg, SC, USA) and placed into the resonator cavity of the X-band EPR spectrometer Bruker Elexsys II E500. […] The acquired EPR spectra were analyzed using the Bruker Xepr software and simulated by SimLabel, a graphical user interface software that is an extension of EasySpin [64], the EPR simulation package (the version of EasySpin used was 6.0.6). […]

[9] = tested on: MIA PaCa-2 cells; test: MTT test; assay type: cell-based, human; settings: MIA PaCa-2, 24 h treatment
Procedure: (§3) The human breast cancer cell line (MDA-MB-231) and human pancreatic cancer cell line (MIA PaCa-2) were obtained from the American Type Culture Collection (ATCC). The cells were cultured in 25 cm^2 flasks with DMEM supplemented with 100 U/mL penicillin-streptomycin, 10% FBS, at 37 °C with 5% CO2 in a humidified incubator.
as §2

[10] = tested on: MDA-MB-231 cells; test: MTT test; assay type: cell-based, human; settings: MDA-MB-231, 24 h treatment
Procedure: as §3, §2

[11] = tested on: MMP2; test: Gelatin gel electrophoresis of supernatants, MMP2 activity, MDA-MB-231; assay type: cell-based, human; settings: MDA-MB-231, 75 µM complex 1 or 50 µM complex 2, 24 and 48 h treatments
Procedure: (§4) MDA-MB-231 and MIA PaCa-2 cells were treated with 50 µM of complex 2 or 75 µM and 100 µM of complex 1, respectively. The treatments lasted 24 and 48 h. Untreated cells were used as control. The supernatants were collected for further analysis. Electrophoresis in a polyacrylamide gel with an add-on of 0.1% SDS and 0.2% gelatin was used to measure metalloproteinase 2 and 9 activity (MMP2 and MMP9).
(§5) The gels were imaged with a ChemiDoc Imaging System (Bio-Rad Laboratories, Hercules, CA, USA) and estimated by densitometric scanning using the Image Lab (Bio-Rad Laboratories, Inc. Version 6.0.0.25) software tool.

[12] = tested on: MMP9; test: Gelatin gel electrophoresis of supernatants, MMP9 activity, MDA-MB-231; assay type: cell-based, human
Procedure: as §4, §5

[13] = tested on: MMP2; test: Gelatin gel electrophoresis of supernatants, MMP2 activity, MIA PaCa-2; assay type: cell-based, human; settings: MIA PaCa-2, 100 µM complex 1 or 50 µM complex 2, 24 and 48 h treatments
Procedure: as §4, §5

[14] = tested on: MMP9; test: Gelatin gel electrophoresis of supernatants, MMP9 activity, MIA PaCa-2; assay type: cell-based, human
Procedure: as §4, §5

[15] = Stability in PBS followed by UV-VIS spectroscopy; assay type: physicochemical; settings: 1 × 10^−4 M in PBS, 0-24 h
From the text: Ligand precursor 3,4-dimethylphenylhydrazine hydrochloride (BLDPharm), [{RuCl2(η^6-p-cymene)}2] (Carbolutions), LiOH × H2O (Sigma Aldrich, Darmstadt, Germany), methanol (Carl Roth), diethyl ether (Carl Roth) and 2-propanol (Carl Roth) were obtained commercially and used without further purification. Deuterated solvents, CDCl3 and MeOD, were procured from Deuterosolvents GmbH and used for NMR spectroscopy. NMR spectra of the synthesized complexes, including ^1H (400.23 MHz) and ^13C NMR (100.1 MHz), were recorded using a Bruker Avance™ 400 MHz Spectrometer. Elemental analysis was performed and the Institute of Chemistry, Chemnitz University of Technology (Heraeus VARIO EL oven). The stability of compounds was examined by UV-VIS spectroscopy on a Thermo Scientific UV-VIS Spectrometer (Thermo Fisher Scientific, Waltham, MA, USA) between 800 and 200 nm. For this experiment, 1 × 10^−2 M solutions of complexes in DMSO were prepared and further diluted to 1 × 10^−4 M solutions in PBS. The measurements were repeated for 24 h.

T1 sequence (P02768 25-609): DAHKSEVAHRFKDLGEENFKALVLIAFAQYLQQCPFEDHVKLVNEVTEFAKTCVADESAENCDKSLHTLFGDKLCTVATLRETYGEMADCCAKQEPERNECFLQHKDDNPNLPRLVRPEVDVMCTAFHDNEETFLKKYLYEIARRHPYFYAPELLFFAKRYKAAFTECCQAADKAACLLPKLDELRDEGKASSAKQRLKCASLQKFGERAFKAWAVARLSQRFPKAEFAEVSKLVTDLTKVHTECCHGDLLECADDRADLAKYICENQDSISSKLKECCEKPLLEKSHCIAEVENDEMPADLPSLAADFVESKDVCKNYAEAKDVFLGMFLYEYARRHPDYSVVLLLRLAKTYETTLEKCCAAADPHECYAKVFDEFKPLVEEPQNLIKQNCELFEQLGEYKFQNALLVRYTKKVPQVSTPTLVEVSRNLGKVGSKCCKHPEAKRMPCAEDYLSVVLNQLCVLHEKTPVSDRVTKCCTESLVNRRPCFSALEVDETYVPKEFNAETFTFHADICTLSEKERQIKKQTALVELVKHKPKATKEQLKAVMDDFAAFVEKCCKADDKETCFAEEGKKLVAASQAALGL

Compound	n (number of binding sites) ([2]; 300 K)	ΔGb ([2]; 300 K) [kcal/mol]	n (number of binding sites) ([2]; 305 K)	ΔGb ([2]; 305 K) [kcal/mol]	n (number of binding sites) ([2]; 310 K)	ΔGb ([2]; 310 K) [kcal/mol]	ΔHb [2] [kcal/mol]	ΔSb [2] [J mol^−1 K^−1]	MDA concentration in the medium [3]	PC concentration in the medium [3]	MDA concentration in the medium [4]	PC concentration in the medium [4]	viability of HS-5 cells [5]	number of cells in the G0/G1 phase [6]	number of cells in the S phase [6]	effect on the cell cycle [7]	Unbound Component Contribution (XUB, %) [8] [%]	IC50 [9] [µM]	IC50 [10] [µM]	MMP2 activity [11]	further results
Cc1ccc(C(C)C)cc1.O=[N+]([O-])c1cccc([NH+]2[NH2+][Ru-]2[Cl])c1 (stereo not drawn) [[RuCl(η^6-p-cymene)(3-DNPH)], chlorido(η^6-p-cymene)(3-nitrophenylhydrazine-k^2N,N’)ruthenium(II)]																					sign of the change in enthalpy and entropy of binding [1]: positive values
Cc1ccc(C(C)C)cc1.Cc1ccc(C(C)C)cc1.Cc1ccc(NN)cc1C.[Cl-].[Cl][Ru].[Cl][Ru][Cl] [complex 2, Chlorido(μ-chlorido)(η^6-p-cymene)(μ-3,4-dimethylphenylhydrazine-κ^2N,N′)ruthenium(II)-dimer chloride]	1.00	-6.12	1.03	-6.55	1.09	-6.96	18.9	348	significantly reduced	decreased	increased	decreased	did not affect the viability	significantly decreased	increased	did not affect	0.71 ± 0.02	50	50	No changes	MMP9 activity ([12]; MDA-MB-231, 50 µM complex 2, 24 and 48 h treatments): did not affect; MMP2 activity [13]: No changes; MMP9 activity ([14]; MIA PaCa-2, 50 µM complex 2, 24 and 48 h treatments): did not affect; time-dependent UV-VIS spectra (stability) [15]: gradual increase in absorbance
Dichlorido(η^6-p-cymene)(3,4-dimethylphenylhydrazine-κN)ruthenium(II) [complex 1]	1.05	-6.76	1.10	-7.46	1.21	-8.17	35.8	590	significantly reduced	increased	reduces	reduces MDA concentration but not PC	did not affect the viability	significantly decreased	increased	did not affect	0.73 ± 0.02	100	75	No changes	change in Gibbs binding energy, range over the examined temperatures ([2]; 27-37 °C): −28.3 to −34.2 kJ mol^−1; Ihf/Ilf parameter (amplitude ratio of high-field and low-field peaks) ([8]; [HSA]:[Ru-complex] 1:0.5 to 1:4, qualitative): more pronounced increase; MMP9 activity ([12]; MDA-MB-231, 75 µM complex 1, after 48 h, compared to control and 24 h treatment (p < 0.01)): significantly lower; MMP2 activity [13]: No changes; MMP9 activity ([14]; MIA PaCa-2, 100 µM complex 1, after 48 h, compared to control and 24 h treatment (p < 0.05)): significantly lower; time-dependent UV-VIS spectra (stability) [15]: monoexponential decrease in absorbance due to the hydrolysis
